Test results from article PMC7959488, “Identify potent SARS-CoV-2 main protease inhibitors via accelerated free energy perturbation-based virtual screening of existing drugs” (Proceedings of the National Academy of Sciences of the …, 2020).
Structures can show the parent of a compound that is named as a salt. Where two headings read alike, the source gives them in different places.

Assays:
HIV-1 protease = conditions: experimental binding free energy; ligand named by PDB code of its complex; cited from earlier work
human factor Xa = conditions: experimental binding free energy; ligand named by PDB code of its complex; cited from earlier work
BRD4 = test system: BRD4; parameters: method as in Aldeghi et al. (18); conditions: experimental binding free energy; ligand named by PDB code of its complex; ref Aldeghi et al. (18); cited from earlier work
SARS-CoV-2 M^pro [1] = target: T1, SARS-CoV-2 M^pro (Severe acute respiratory syndrome coronavirus 2, UniProt P0DTD1); test: biochemical
SARS-CoV-2 M^pro [2] = target: T1, SARS-CoV-2 M^pro
SARS-CoV-2 M^pro [3] = target: T1, SARS-CoV-2 M^pro; conditions: for UEMM-GBSA: unsigned error |ΔGMM-GBSA − ΔGexp|; for UEMM-PBSA: unsigned error |ΔGMM-PBSA − ΔGexp|
SARS-CoV-2 M^pro [4] = target: T1, SARS-CoV-2 M^pro; conditions: ref [6], [36]; read-out: IC50 (µM), values in the brackets obtained from other published works (converted); cited from earlier work
[5] = test system: vesicular stomatitis virus (VSV); format: cell-based
SARS-CoV-2 = conditions: cited from earlier work; for activity in vitro against SARS-CoV-2: molecular targets not reported
SARS-CoV = conditions: at 1.0 μM; cited from earlier work
norovirus = conditions: cited from earlier work
[6] = test system: human ether-a-go-go−related gene (hERG) encoded potassium channel Kv11.1; conditions: cited from earlier work
[7] = test system: microsomal prostaglandin E2 synthase 1 (mPGES-1); conditions: cited from earlier work
[8] = calculated from corresponding Ki values
[9] = converted from IC50 based on the assumption of the competitive inhibition without covalent binding, read-out: Ki
[10] = substrate concentration 20 µM, 500 nM enzyme, ∼50 values estimated from single-concentration assay, read-out: IC50

O=S1(=O)N(Cc2ccccc2)[C@H](COc2ccccc2)[C@H](O)[C@@H](O)[C@@H](COc2ccccc2)N1Cc1ccccc1 [1AJV]
∆Gexp (HIV-1 protease): -10.5 kcal/mol

O=C(NCc1ccccc1)[C@H](OCc1ccccc1)[C@H](O)[C@@H](O)[C@@H](OCc1ccccc1)C(=O)N[C@H]1c2ccccc2C[C@H]1O [1D4H]
∆Gexp (HIV-1 protease): -13.6 kcal/mol

O=C(N[C@H]1c2ccccc2C[C@H]1O)[C@@H](C[C@@H](O)[C@@H](OCc1ccccc1)C(=O)N[C@H]1c2ccccc2C[C@H]1O)OCc1ccccc1 [1D4I]
∆Gexp (HIV-1 protease): -12.1 kcal/mol

O=C(N[C@H]1c2ccccc2C[C@H]1O)[C@H](OCc1ccccc1)[C@H](O)[C@@H](O)[C@@H](OCc1ccccc1)C(=O)N[C@H]1c2ccccc2C[C@H]1O [1EBY]
∆Gexp (HIV-1 protease): -13.2 kcal/mol

CNC(=O)[C@@H](NC(=O)[C@H](OCc1ccccc1)[C@H](O)[C@@H](O)[C@@H](OCc1ccccc1)C(=O)N[C@H]1c2ccccc2C[C@H]1O)C(C)C [1EBZ]
∆Gexp (HIV-1 protease): -12.8 kcal/mol

CN1CCN=C1c1cccc(Oc2nc(Oc3cc(C(=N)N)ccc3O)c(F)c(N(C)CC(=O)O)c2F)c1 [1FJS]
∆Gexp (human factor Xa): -13.6 kcal/mol

COc1cc(Cl)cc(C(=O)Nc2ccc(Cl)cn2)c1NC(=O)c1scc(CN(C)C2=NCCO2)c1Cl [1MQ6]
∆Gexp (human factor Xa): -15.2 kcal/mol

CC(C(=O)N1CCOCC1)N1CCC(NS(=O)(=O)c2cc3ccc(Cl)cc3s2)C1=O (centres unmarked) [2J34]
∆Gexp (human factor Xa): -10.7 kcal/mol

COc1ccc(-n2nc(C(N)=O)c3c2C(=O)N(c2ccc(N4CCCCC4=O)cc2)CC3)cc1 [2P16]
∆Gexp (human factor Xa): -13.8 kcal/mol

CC(=O)N[C@@H](C)C(=O)N[C@@H](Cc1ccccc1)[C@H](O)CN(Cc1cccs1)S(=O)(=O)c1cc(F)c(F)cc1F [2QHY]
∆Gexp (HIV-1 protease): -10.2 kcal/mol

O=C(Cn1cnc(NC(=O)c2ccc(Cl)s2)n1)Nc1ccc(-n2ccccc2=O)cc1F [2VVV]
∆Gexp (human factor Xa): -11.2 kcal/mol

C=C(C)CNC(=O)C1N(C(=O)C(O)C(Cc2ccccc2)NC(=O)COc2c(C)cc(N)cc2C)CSC1(C)C (centres unmarked) [3A2O]
∆Gexp (HIV-1 protease): -12.4 kcal/mol

Cc1sc2c(c1C)C(c1ccc(Cl)cc1)=N[C@@H](CC(=O)OC(C)(C)C)c1nnc(C)n1-2 [3MXF]
∆Gexp (BRD4): -9.6 kcal/mol

CCOc1cc(-c2c(C)noc2C)cc(C(C)O)c1 (centres unmarked) [3SVG]
∆Gexp (BRD4): -7.3 kcal/mol

Cc1nnc2n1-c1ccc(Cl)cc1C(c1ccccc1)=NC2 [3U5J]
∆Gexp (BRD4): -7.4 kcal/mol

Cc1nnc2n1-c1ccc(Cl)cc1C(c1ccccc1)=NN2C [3U5L]
∆Gexp (BRD4): -8.2 kcal/mol

CN1Cc2cc(Br)ccc2NC1=O [4HBV]
∆Gexp (BRD4): -6.3 kcal/mol

Cc1noc(C)c1-c1cc(O)cc(C(O)c2ccccc2)c1 (centres unmarked) [4J0R]
∆Gexp (BRD4): -8.8 kcal/mol

COc1cc(OC)c2c(=O)[nH]c(-c3cc(C)c(O)c(C)c3)nc2c1 [4MR3]
∆Gexp (BRD4): -9.0 kcal/mol

COc1cc(OC)c2c(=O)[nH]c(-c3cc(C)c(OCCO)c(C)c3)nc2c1 [4MR4]
∆Gexp (BRD4): -7.8 kcal/mol

CC(C)CN(CC(O)C(Cc1ccccc1)NC(=O)OC1COC2OCC(F)(F)C12)S(=O)(=O)c1ccc(N)cc1 (centres unmarked) [4U8W]
∆Gexp (HIV-1 protease): -15.3 kcal/mol

Cc1coc(CN(C)C(=O)c2cccc(C(=O)N[C@@H](Cc3ccccc3)[C@H](O)CN(CC(C)C)S(=O)(=O)c3ccc(CO)cc3)c2)n1 [5UPZ]
∆Gexp (HIV-1 protease): -12.5 kcal/mol

COC(=O)N[C@H](C(=O)N[C@@H](Cc1ccccc1)[C@@H](O)CN(Cc1ccc(-c2ccccn2)cc1)NC(=O)[C@@H](NC(=O)OC)C(C)(C)C)C(C)(C)C [Atazanavir, atazanavir]
ΔGexp (SARS-CoV-2 M^pro [1]; [8]): -8.6 kcal/mol | Ki (SARS-CoV-2 M^pro [1]; [9]): 0.49 ± 0.02 µM | IC50 (SARS-CoV-2 M^pro [1]; [10]): 7.5 ± 0.3 µM | UEFEP-ABFE (SARS-CoV-2 M^pro [2]): 0.6 kcal/mol | UEMM-GBSA (SARS-CoV-2 M^pro [3]): 30.6 kcal/mol | UEMM-PBSA (SARS-CoV-2 M^pro [3]): 24.4 kcal/mol | IC50 (SARS-CoV-2 M^pro [4]): 10 µM

CCOc1nc2cccc(C(=O)OC(C)OC(=O)OC3CCCCC3)c2n1Cc1ccc(-c2ccccc2-c2nnn[nH]2)cc1 (centres unmarked) [Candesartan cilexetil, candesartan cilexetil]
ΔGexp (SARS-CoV-2 M^pro [1]; [8]): -9.2 kcal/mol | Ki (SARS-CoV-2 M^pro [1]; [9]): 0.18 ± 0.02 µM | IC50 (SARS-CoV-2 M^pro [1]; [10]): 2.8 ± 0.3 µM | UEFEP-ABFE (SARS-CoV-2 M^pro [2]): 0.6 kcal/mol | UEMM-GBSA (SARS-CoV-2 M^pro [3]): 29.1 kcal/mol | UEMM-PBSA (SARS-CoV-2 M^pro [3]): 26.9 kcal/mol

CCOc1nc2cccc(C(=O)O)c2n1Cc1ccc(-c2ccccc2-c2nnn[nH]2)cc1 [Candesartan, candesartan]
Ki (SARS-CoV-2 M^pro [1]): 0.62 µM

CCN(CC)CCCC(C)Nc1ccnc2cc(Cl)ccc12 (centres unmarked) [Chloroquine, chloroquine]
UEFEP-ABFE (SARS-CoV-2 M^pro [2]): 1.5 kcal/mol | UEMM-GBSA (SARS-CoV-2 M^pro [3]): 24.7 kcal/mol | UEMM-PBSA (SARS-CoV-2 M^pro [3]): 16.1 kcal/mol | inhibition of VSV [5]: no significant inhibition | activity in vitro against SARS-CoV-2 (SARS-CoV-2): active in vitro | SARS-CoV replication reduced to (SARS-CoV): 53% | sensitivity of norovirus to treatment (norovirus): hypersensitive | IC50 [6]: 2.5 µM

CN/C(=N/CCSCc1nc[nH]c1C)NC#N [Cimetidine]
IC50 (SARS-CoV-2 M^pro [1]): ~50 µM | Ki (SARS-CoV-2 M^pro [1]): ~3.27 µM | ΔGexp (SARS-CoV-2 M^pro [1]): -7.5 kcal/mol | UEFEP-ABFE (SARS-CoV-2 M^pro [2]): 1.4 kcal/mol | UEMM-GBSA (SARS-CoV-2 M^pro [3]): 20.3 kcal/mol | UEMM-PBSA (SARS-CoV-2 M^pro [3]): 18.7 kcal/mol

OCCN(CCO)c1nc(N2CCCCC2)c2nc(N(CCO)CCO)nc(N3CCCCC3)c2n1 [DIP, dipyridamole]
EC50 (SARS-CoV-2; raw antiviral activity data reported separately, read-out: EC50, suppression of SARS-CoV-2 replication): 0.1 µM | inhibition of mPGES-1 [7]: weak inhibitor

CCN(CC)C(=S)SSC(=S)N(CC)CC [Disulfiram, disulfiram]
ΔGexp (SARS-CoV-2 M^pro [1]; [8]): -8.8 kcal/mol | UEFEP-ABFE (SARS-CoV-2 M^pro [2]): 2.2 kcal/mol | UEFEP-ABFE (SARS-CoV-2 M^pro [2]; listed as disulfiram): about 2.2 kcal/mol

CCN(CCO)CCCC(C)Nc1ccnc2cc(Cl)ccc12 (centres unmarked) [Hydroxychloroquine, hydroxychloroquine]
UEFEP-ABFE (SARS-CoV-2 M^pro [2]): 1.1 kcal/mol | inhibition of VSV [5]: no significant inhibition | activity in vitro against SARS-CoV-2 (SARS-CoV-2): active in vitro | IC50 ([6]; read-out: IC50, hERG Kv11.1 block): 10.7 µM

CC(C)(C)NC(=O)[C@@H]1CN(Cc2cccnc2)CCN1C[C@@H](O)C[C@@H](Cc1ccccc1)C(=O)N[C@H]1c2ccccc2C[C@H]1O [Indinavir]
activity in vitro against SARS-CoV-2 (SARS-CoV-2): active in vitro

CC(C)Nc1nc2cc(Cl)c(Cl)cc2n1[C@H]1O[C@@H](CO)[C@H](O)[C@@H]1O [Maribavir]
UEFEP-ABFE (SARS-CoV-2 M^pro [2]; unsigned error |ΔGFEP-ABFE − ΔGexp|): 2.2 kcal/mol | UEFEP-ABFE (SARS-CoV-2 M^pro [2]; unsigned error |ΔGFEP-ABFE − ΔGexp|, listed as maribavir): about 2.2 kcal/mol | UEMM-GBSA (SARS-CoV-2 M^pro [3]): 25.7 kcal/mol | UEMM-PBSA (SARS-CoV-2 M^pro [3]): 19.5 kcal/mol

COc1ccc2[nH]c([S+]([O-])Cc3ncc(C)c(OC)c3C)nc2c1 (centres unmarked) [Omeprazole]
IC50 (SARS-CoV-2 M^pro [1]): 21 ± 1 µM | Ki (SARS-CoV-2 M^pro [1]): 1.37 ± 0.06 µM | ΔGexp (SARS-CoV-2 M^pro [1]; [8]): -8.0 kcal/mol | UEFEP-ABFE (SARS-CoV-2 M^pro [2]): 1.6 kcal/mol | UEMM-GBSA (SARS-CoV-2 M^pro [3]): 16.4 kcal/mol | UEMM-PBSA (SARS-CoV-2 M^pro [3]): 14.3 kcal/mol

CN(C)[C@@H]1C(O)=C(C(N)=O)C(=O)[C@@]2(O)C(O)=C3C(=O)c4c(O)cccc4[C@@](C)(O)[C@H]3[C@H](O)[C@@H]12 [Oxytetracycline]
ΔGexp (SARS-CoV-2 M^pro [1]; [8]): -8.2 kcal/mol | Ki (SARS-CoV-2 M^pro [1]; [9]): 0.99 ± 0.06 µM | IC50 (SARS-CoV-2 M^pro [1]; [10]): 15.2 ± 0.9 µM | UEFEP-ABFE (SARS-CoV-2 M^pro [2]): 0.6 kcal/mol | UEMM-GBSA (SARS-CoV-2 M^pro [3]): 6.4 kcal/mol | UEMM-PBSA (SARS-CoV-2 M^pro [3]): 1.8 kcal/mol

CC(=O)OCC(=O)NCCCOc1cccc(CN2CCCCC2)c1 [Roxatidine acetate hydrochloride]
ΔGexp (SARS-CoV-2 M^pro [1]; [8]): -8.0 kcal/mol | Ki (SARS-CoV-2 M^pro [1]; [9]): 1.33 ± 0.02 µM | IC50 (SARS-CoV-2 M^pro [1]; [10]): 20.3 ± 0.4 µM | UEFEP-ABFE (SARS-CoV-2 M^pro [2]): 0.8 kcal/mol | UEMM-GBSA (SARS-CoV-2 M^pro [3]): 22.5 kcal/mol | UEMM-PBSA (SARS-CoV-2 M^pro [3]): 21.2 kcal/mol

CC(=O)NS(=O)(=O)c1ccc(N)cc1 [Sulfacetamide]
IC50 (SARS-CoV-2 M^pro [1]): ~50 µM | Ki (SARS-CoV-2 M^pro [1]): ~3.27 µM | ΔGexp (SARS-CoV-2 M^pro [1]; [8]): -7.5 kcal/mol | UEFEP-ABFE (SARS-CoV-2 M^pro [2]): 0.5 kcal/mol | UEMM-GBSA (SARS-CoV-2 M^pro [3]): 6.4 kcal/mol | UEMM-PBSA (SARS-CoV-2 M^pro [3]): 7.3 kcal/mol

CC(C)[C@H](N)C(=O)OCCOCn1cnc2c(=O)[nH]c(N)nc21 [Valacyclovir hydrochloride]
ΔGexp (SARS-CoV-2 M^pro [1]; [8]): -8.1 kcal/mol | Ki (SARS-CoV-2 M^pro [1]; [9]): 1.09 ± 0.06 µM | IC50 (SARS-CoV-2 M^pro [1]; [10]): 16.7 ± 0.9 µM | UEFEP-ABFE (SARS-CoV-2 M^pro [2]): 1.9 kcal/mol | UEMM-GBSA (SARS-CoV-2 M^pro [3]): 10.2 kcal/mol | UEMM-PBSA (SARS-CoV-2 M^pro [3]): 12.7 kcal/mol

CC(C)[C@H](N)C(=O)OCC(CO)OCn1cnc2c(=O)nc(N)[nH]c21 (some centres unmarked) [Valganciclovir Hydrochloride]
Ki (SARS-CoV-2 M^pro [1]; [9]): 1.09 ± 0.06 µM
